The EC50 is the concentration that produces a half-maximal response. Higher therefore signals lower potency in that assay.

This is an account of results in patent publication US7713971B2, “1,2,4-triazine derivatives, preparation and use thereof in human therapy” (Pierre Fabre Medicament, priority 2005, dated 2010).

Where two headings read alike, the source gives them in different places.

Assay [1] concerns the target T1, human PPARα (Homo sapiens, UniProt Q07869).
T1 construct: expressed in transfected cells; host or cells: Cos-7 cells (ATCC, CRL-1651)
T1 sequence (Q07869 239-466 limits assumed): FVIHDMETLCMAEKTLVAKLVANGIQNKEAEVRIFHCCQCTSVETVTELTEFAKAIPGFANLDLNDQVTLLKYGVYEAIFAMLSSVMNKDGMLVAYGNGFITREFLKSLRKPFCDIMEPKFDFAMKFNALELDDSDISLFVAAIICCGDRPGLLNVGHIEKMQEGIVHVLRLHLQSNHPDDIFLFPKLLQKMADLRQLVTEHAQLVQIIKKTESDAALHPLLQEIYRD
As to the kind of experiment: Reporter gene transactivation, hPPAR-GAL4 alpha. In kind it is cell-based. Conditions: transfected Cos-7 cells, Gal-4 luciferase reporter, 24 hours treatment. A general note: A reporter such as luciferase makes a cellular process visible.

The target of assay [2] is T2, human PPARγ (Homo sapiens, UniProt P37231).
T2 construct: expressed in transfected cells; host or cells: Cos-7 cells (ATCC, CRL-1651)
T2 sequence (P37231 238-503 limits assumed): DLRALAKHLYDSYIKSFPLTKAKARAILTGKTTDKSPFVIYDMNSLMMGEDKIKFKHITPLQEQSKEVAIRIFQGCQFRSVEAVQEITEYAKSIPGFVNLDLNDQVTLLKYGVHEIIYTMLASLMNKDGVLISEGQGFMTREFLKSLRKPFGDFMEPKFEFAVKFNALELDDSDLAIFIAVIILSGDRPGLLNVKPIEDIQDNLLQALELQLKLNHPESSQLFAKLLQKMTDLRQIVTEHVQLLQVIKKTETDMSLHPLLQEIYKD
As to the kind of experiment: Reporter gene transactivation, hPPAR-GAL4 gamma. It counts as cell-based. Conditions: transfected Cos-7 cells, Gal-4 luciferase reporter, 24 hours treatment.

The test system of assay [3] is insulin-resistant male rat (Ico: ZUCKER-fa/fa). As to the kind of experiment: Normalization of metabolic parameters (cholesterol, plasma triglycerides) in insulin-resistant rat. As to conditions: oral route, once per day for four days, Zucker fa/fa rat unfed 16-18 hours; for change in vivo at 2.5 mg/kg / change in vivo at 10 mg/kg: 96 h. In kind it is in vivo. How it is done: Normalization of metabolic parameters (cholesterol, plasma triglycerides) in an insulin-resistant male rat (Ico: ZUCKER-fa/fa), unfed for 16-18 hours, after treatment by oral route, once per day for four days, with the compounds to be evaluated or their administration vehicle.
These metabolic parameters are measured by spectrophotometry at the beginning and the end of each animal's treatment.

Where [4] appears, read: at 2.5 mg/kg, read-out: Plasma cholesterol.
[5] abbreviates: at 2.5 mg/kg, read-out: Plasma triglycerides.
The mark [6] stands for this setting: at 10 mg/kg, read-out: Plasma cholesterol.
Setting [7] is: at 10 mg/kg, read-out: Plasma triglycerides.

In the case of `CCCCCCCn1nc(NCCc2ccc(SC(C)(C)C(=O)O)cc2)c(=O)n(CCCC)c1=O` [Example 121, 2-{4-[2-(4-Butyl-2-heptyl-3,5-dioxo-2,3,4,5-tetrahydro-[1,2,4]triazin-6-ylamino)-ethyl]-phenylsulfanyl}-2-methyl-propionic Acid], the EC50 lay in the range of 30 to 100 nM in assay [1] and 1000 to 3000 nM in assay [2]. Moreover, the figures for the change in vivo at 2.5 mg/kg in assay [3] (setting [4]) and in assay [3] (setting [5]) were -7% and -24%, respectively.

Take `CCCCCCCn1nc(NCCCOc2ccc(OC(C)(C)C(=O)OCC)cc2)c(=O)n(C)c1=O` [Example 45, Ethyl 2-{4-[3-(2-heptyl-4-methyl-3,5-dioxo-2,3,4,5-tetrahydro-[1,2,4]triazin-6-ylamino)-propoxy]-phenoxy}-2-methyl-propionate]: the EC50 in assay [1] was 1000 to 3000 nM; in assay [2], roughly 3000 nM. Besides, the change in vivo at 10 mg/kg in assay [3] (setting [6]) is -16%. The Plasma triglycerides entry in assay [3] (at 10 mg/kg) is “inactive at 10”.

`CCCCCCCn1c(=O)c(NCCCOc2ccc(OC(C)(C)C(=O)OCC)cc2)nn(C)c1=O` [Example 47, Ethyl 2-{4-[3-(4-heptyl-4-methyl-3,5-dioxo-2,3,4,5-tetrahydro-[1,2,4]triazin-6-ylamino)-propoxy]-phenoxy}-2-methyl-propionate]: the EC50 in assay [1] and in assay [2] was roughly 300 nM in each case. Besides, the change in vivo at 10 mg/kg is -25% in assay [3] (setting [6]) and -45% in assay [3] (setting [7]).

`CCOC(=O)C(C)(C)Oc1cccc(CCCCCNc2nn(CCCC(F)(F)F)c(=O)n(CCCC(F)(F)F)c2=O)c1` [Example 92, Ethyl 2-(3-{5-[3,5-dioxo-2,4-bis-(4,4,4-trifluoro-butyl)-2,3,4,5-tetrahydro-[1,2,4]triazin-6-ylamino]-pentyl}-phenoxy)-2-methyl-propionate]: the EC50 in assay [1] is 3 to 10 nM; in assay [2], 3000 to 10000 nM. Further, the change in vivo at 10 mg/kg in assay [3] (setting [6]) is -18%. In addition, in assay [3] (at 10 mg/kg), the Plasma triglycerides result was “inactive at 10”.

Consider `CCCCCCCn1nc(NCCc2ccc(SC(C)(C)C(=O)O)cc2)c(=O)n(C)c1=O` [Example 120, 2-{4-[2-(2-Heptyl-4-methyl-3,5-dioxo-2,3,4,5-tetrahydro-[1,2,4]triazin-6-ylamino)-ethyl]-phenylsulfanyl}-2-methyl-propionic Acid], for which the values for the EC50 in assay [1] and in assay [2] were 300 to 1000 nM and 1000 to 3000 nM, respectively. The change in vivo at 2.5 mg/kg in assay [3] (setting [4]) was -32%; in assay [3] (setting [5]), -27%. The change in vivo at 10 mg/kg was -33% in assay [3] (setting [6]) and -73% in assay [3] (setting [7]).

Take `CCOC(=O)C(C)(C)Oc1cccc(CCCCNc2nn(CCCC(F)(F)F)c(=O)n(C)c2=O)c1` [Example 74, Ethyl 2-methyl-2-(3-{4-[4-methyl-3,5-dioxo-2-(4,4,4-trifluoro-butyl)-2,3,4,5-tetrahydro-[1,2,4]triazin-6-ylamino]-butyl}-phenoxy)-propionate]: the results for the EC50 in assay [1] and in assay [2] were roughly 1000 nM and 3000 to 10000 nM, respectively. In addition, the change in vivo at 2.5 mg/kg in assay [3] (setting [4]) is -18%. Further, the values for the change in vivo at 10 mg/kg in assay [3] (setting [6]) and in assay [3] (setting [7]) were -29% and -26%, respectively. For the same compound, in assay [3] (at 2.5 mg/kg), the Plasma triglycerides result was “inactive at 2.5”.

Regarding `CCCCCCCn1nc(NCCCc2cccc(OC(C)(C)C(=O)OCC)c2)c(=O)n(Cc2ccccc2)c1=O` [Example 72, Ethyl 2-{3-[3-(4-Benzyl-2-heptyl-3,5-dioxo-2,3,4,5-tetrahydro-[1,2,4]triazin-6-ylamino)-propyl]-phenoxy}-2-methyl-propionate], the EC50 in assay [1] and in assay [2] was 3000 to 10000 nM in each case. Besides, the change in vivo at 10 mg/kg in assay [3] (setting [6]) was -21%. The Plasma triglycerides entry in assay [3] (at 10 mg/kg) is “inactive at 10”.

Consider `CCOC(=O)C(C)(C)Oc1cccc(CCCCCOc2nn(C)c(=O)n(CCCC(F)(F)F)c2=O)c1` [Example 16, Ethyl 2-methyl-2-(3-{5-[2-methyl-3,5-dioxo-4-(4,4,4-trifluoro-butyl)-2,3,4,5-tetrahydro-[1,2,4]triazin-6-yloxy]-pentyl}-phenoxy)-propionate], for which the EC50 was roughly 100 nM in assay [1] and 3000 to 10000 nM in assay [2]. Besides, the change in vivo at 2.5 mg/kg in assay [3] (setting [4]) was -14%. Besides, the change in vivo at 10 mg/kg in assay [3] (setting [6]) is -25%; in assay [3] (setting [7]) it was -15%. In assay [3] (at 2.5 mg/kg), the Plasma triglycerides entry was “inactive at 2.5”.

As for `CCCCCCCn1c(=O)c(NCCCc2cccc(OC(C)(C)C(=O)OCC)c2)nn(CCCC(F)(F)F)c1=O` [Example 68, Ethyl 2-(3-{3-[4-heptyl-3,5-dioxo-2-(4,4,4-trifluoro-butyl)-2,3,4,5-tetrahydro-[1,2,4]triazin-6-ylamino]-propyl}-phenoxy)-2-methyl-propionate], the EC50 is 100 to 300 nM in assay [1] and 3000 to 10000 nM in assay [2]. Moreover, the change in vivo at 10 mg/kg in assay [3] (setting [6]) is -21%. Also, the Plasma triglycerides result in assay [3] (at 10 mg/kg) is “active at 10 mg/kg”.

On to `Cn1nc(NCCCCc2cccc(OC(C)(C)C(=O)O)c2)c(=O)n(CCCC(F)(F)F)c1=O` [Example 79, 2-Methyl-2-(3-{4-[2-methyl-3,5-dioxo-4-(4,4,4-trifluoro-butyl)-2,3,4,5-tetrahydro-[1,2,4]triazin-6-ylamino]-butyl}-phenoxy)-propionic Acid], for which the EC50 in assay [1] is roughly 30 nM; in assay [2], 3000 to 10000 nM. The change in vivo at 2.5 mg/kg in assay [3] (setting [4]) was -32%; in assay [3] (setting [5]), -55%.

With `CCCCCCCn1nc(NCCc2ccc(SC(C)(C)C(=O)OCC)cc2)c(=O)n(C)c1=O` [Example 119, Ethyl 2-{4-[2-(2-heptyl-4-methyl-3,5-dioxo-2,3,4,5-tetrahydro-[1,2,4]triazin-6-ylamino)-ethyl]-phenylsulfanyl}-2-methyl-propionate], the concentration giving a half-maximal response (EC50) in assay [1] and in assay [2] was 300 nM each time. The change in vivo at 2.5 mg/kg in assay [3] (setting [4]) was -21%. Besides, the change in vivo at 10 mg/kg is -32% in assay [3] (setting [6]) and -29% in assay [3] (setting [7]). For the same compound, in assay [3] (at 2.5 mg/kg), the Plasma triglycerides result is listed as “active at 2.5”.

As to `CCOC(=O)C(C)(C)Oc1cccc(CCCCNc2nn(C)c(=O)n(CCCC(F)(F)F)c2=O)c1` [Example 77, Ethyl 2-methyl-2-(3-{4-[2-methyl-3,5-dioxo-4-(4,4,4-trifluoro-butyl)-2,3,4,5-tetrahydro-[1,2,4]triazin-6-ylamino]-butyl}-phenoxy)-propionate], the results for the EC50 in assay [1] and in assay [2] were roughly 300 nM and 3000 to 10000 nM, respectively. Further, the change in vivo at 2.5 mg/kg in assay [3] (setting [4]) is -29%. Besides, the change in vivo at 10 mg/kg in assay [3] (setting [6]) was -35%. The Plasma triglycerides entry in assay [3] (at 10 mg/kg) was “active at 10 mg/kg”.

As to `CCOC(=O)C(C)(C)Sc1cccc(CCCCNc2nn(C)c(=O)n(CCCC(F)(F)F)c2=O)c1` [Example 95], the figures for the EC50 in assay [1] and in assay [2] were 1000 to 3000 nM and greater than 10000 nM, respectively. In addition, in assay [3] (setting [4]), the change in vivo at 2.5 mg/kg is -18%. The change in vivo at 10 mg/kg in assay [3] (setting [6]) is -40%. Besides, the Plasma triglycerides entry in assay [3] (at 10 mg/kg) is “inactive at .10”.

For `CCCCCCCn1nc(NCCCCc2cccc(OC(C)(C)C(=O)OCC)c2)c(=O)n(C)c1=O` [Example 75, Ethyl 2-{3-[4-(2-heptyl-4-methyl-3,5-dioxo-2,3,4,5-tetrahydro-[1,2,4]triazin-6-ylamino)-butyl]-phenoxy}-2-methyl-propionate], the EC50 in assay [1] and in assay [2] was 3000 to 10000 nM each time. Besides, in assay [3] (setting [4]), the change in vivo at 2.5 mg/kg was -19%. For the same compound, in assay [3] (setting [6]), the change in vivo at 10 mg/kg was -13%. In addition, the Plasma triglycerides entry in assay [3] (at 10 mg/kg) is “active at 10”.

Turning to `CCOC(=O)C(C)(C)Oc1cccc(CCCCNc2nn(CCC#N)c(=O)n(CCCC(F)(F)F)c2=O)c1` [Example 81, Ethyl 2-(3-{4-[2-(2-cyano-ethyl)-3,5-dioxo-4-(4,4,4-trifluoro-butyl)-2,3,4,5-tetrahydro-[1,2,4]triazin-6-ylamino]-butyl}-phenoxy)-2-methyl-propionate], the EC50 in assay [1] is 300 to 1000 nM; in assay [2], greater than 10000 nM. For the same compound, the change in vivo at 10 mg/kg in assay [3] (setting [6]) is -12%; in assay [3] (setting [7]), -17%.

As for `CCOC(=O)C(C)(C)Oc1cccc(CCCNc2nn(C)c(=O)n(CCCC(F)(F)F)c2=O)c1` [Example 65, Ethyl 2-methyl-2-(3-{3-[2-methyl-3,5-dioxo-4-(4,4,4-trifluoro-butyl)-2,3,4,5-tetrahydro-[1,2,4]triazin-6-ylamino]-propyl}-phenoxy)-propionate], the EC50 is 100 to 300 nM in assay [1] and greater than 10000 nM in assay [2]. The change in vivo at 2.5 mg/kg in assay [3] (setting [4]) was -13%. Further, the change in vivo at 10 mg/kg in assay [3] (setting [6]) was -23%; in assay [3] (setting [7]), -13%. For the same compound, the Plasma triglycerides result in assay [3] (at 2.5 mg/kg) is “inactive at 2.5”.
